The data set can be described thus: Stability and protonation constants of Zn^II complexes by pH potentiometry. Format: physicochemical. The source says: The metal complexes of biomedical interest must show a high in vivo stability, which includes high thermodynamic stability and kinetic inertness to allow targeting applications and to avoid possible toxic effects derived by metal ion and ligand release via transmetalation or transchelation reactions.[2],[3],[13] The protonation constants of L2 as well as the stability and the protonation constants of GdL2 and those of the most important endogenous divalent metal complexes (Ca^II-, Zn^II-, and Cu^II) were determined by pH potentiometry (Table 1 and Table S1). In the case of GdL1, we were interested in determining the dissociation constant of the hydroxyl group that was measured also by pH potentiometry (Table 1). Experimental details and the definitions and equations used for the evaluation of the equilibrium and kinetic data are summarized in the SI.
The stability and protonation constants of Ca^2+, Zn^2+, and Cu^2+ complexes formed with the L1 ligand were determined by pH potentiometric titration. The metal-to-ligand concentration ratio was 1:1 (the concentration of the ligand was generally 0.002 M). The protonation constants of the GdL1 and GdL2 complexes were determined using pH potentiometry by titrating the preprepared complexes from pH = 3.0 to pH = 12 for GdL2 and from pH = 4.0 to pH = 12 for GdL1 with 0.2 M NaOH. The stability constants of GdL2 were determined by the “out-of-cell” technique because of the slow formation reaction. The pH range of the complexation equilibria and the time needed to reach the equilibria were determined by relaxometry for the formation of GdL2. […] For the calculation of the stability constants of GdL2, besides the protonation constants of ligands, the stability constants of the diprotonated *Gd(H2L2) out-of-cage complexes (considered as intermediates) were also used as fixed values, which were calculated from the pH potentiometric titration curve of the Gd^3+–L2 system obtained in the pH range 1.7–4.0.
For the pH measurements and titrations, the Metrohm 888 Titrando titration workstation Metrohm-6.0234.110 combined electrode was used. […] For the calculation of [H^+] from the measured pH values, the method proposed by Irving et al. was used as follows.[34] […] The differences (A) between the measured (pHread) and calculated (−log[H^+]) pH values were used to obtain the equilibrium H^+ concentration from the pH values measured in the titration experiments (A = 0.024). […]
The stability and protonation constants of CaII-, ZnII-, CuII- and GdIII-complexes of L2, expressed by Eqs. (S2) and (S3), were determined by pH-potentiometry and spectrophotometry at 25 °C in 0.15 M […]
where i=0, 1, 2, 3. […] The stability constant of GdL2 was calculated from the equilibrium data obtained by the “out-of-cell” technique due to the slow complexation reaction. […]

Turning to `O=C(O)CN1CCN(CC(=O)O)CCN(C[C@@H](O)C(=O)O)CCN(CC(=O)O)CC1` [L2, (R)2,2′,2″-(10-(2-Carboxy-2-hydroxyethyl)-1,4,7,10-tetraazacyclododecane-1,4,7-triyl) Triacetic Acid], under “0.15 M NaCl, 25 °C”, the “ZnH2L (log K)” value is recorded as 3.32 (3); the “ZnH3L (log K)” value is 2.29 (5); the “ZnHL (log K, protonation constant of the complex)” value is given as 3.86 (5). Further, the “ZnL (log K, stability constant)” value (I = 0.15 M NaCl, 298 K) is reported as 17.81 (6).

The values above are taken from PMC8769378, “Underlining the Importance of Peripheral Protic Functional Groups to Enhance the Proton Exchange of Gd-Based MRI Contrast Agents” (Inorganic Chemistry, 2021).
